Measured values reported in patent US12297171B2, “EP2 antagonist compounds” (Reservoir Neuroscience, Inc., priority 2021, dated 2025).

Columns and labels:
[1] = target: T1, EP2 receptor (Homo sapiens, UniProt P43116); experiment: EP2 potency assay (cAMP TR-FRET, LANCE Ultra cAMP kit, antagonism of prostaglandin E2 at EC80); type: cell-based; settings: CHO-K1 cells transfected with EP2 receptor
T1 construct: expressed in transfected cells; host or cells: CHO-K1 cells (ATCC), transiently transfected with FuGENE 6
T1 sequence (P43116 whole entry): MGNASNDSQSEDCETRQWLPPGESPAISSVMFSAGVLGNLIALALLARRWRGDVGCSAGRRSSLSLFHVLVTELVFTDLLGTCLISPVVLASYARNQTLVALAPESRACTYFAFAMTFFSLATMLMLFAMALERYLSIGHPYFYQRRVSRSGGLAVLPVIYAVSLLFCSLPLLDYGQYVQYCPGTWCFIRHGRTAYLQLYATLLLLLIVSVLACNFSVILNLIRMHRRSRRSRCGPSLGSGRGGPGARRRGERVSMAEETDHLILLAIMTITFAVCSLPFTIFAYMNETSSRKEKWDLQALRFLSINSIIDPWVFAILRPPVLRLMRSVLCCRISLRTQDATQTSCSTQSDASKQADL
Protocol: Compound potency was measured using a cAMP TR-FRET assay.
CHO-K1 cells (ATCC) were seeded at a density of 9.75×10^5 in 6 cm plates, and then on the following day cell media was changed to Opti-Mem I reduced serum media (Gibco), and transfected with a plasmid for expression of the EP2 receptor (the target receptor of interest), using the FuGENE 6 Transfection reagent (Promega). After 6 hours incubation, the cell media was replaced with F12 medium supplemented with 10% FBS and 100 U/ml Pen-Strep. 24 hours after transfection, cells were harvested and seeded at a density of 3000 cells/well in a 384 well plate to perform the cAMP assay, using the LANCE Ultra cAMP assay kit (PerkinElmer).
For each test compound of interest, 10 nl/well of serially diluted test compound was added to each well, resulting in a range of 10 serially diluted compound concentrations from 10000 nM to 0.038 nM, with duplicate wells for each concentration. Plates were then centrifuged at 1000 rpm for 1 min, agitated at 600 rpm at R.T. for 2 min, and incubated at 25° C. for 5 min. The reference agonist, prostaglandin E2 (MCE), was added to each well at the appropriate concentration to reach its EC80 value. Plates were then centrifuged at 1000 rpm for 1 min, agitated at 600 rpm at R.T. for 2 min, and incubated at 25° C. for 30 min.
To measure levels of cAMP, 5 μl/well of Eu-cAMP working solution and 5 μl/well of Ulight-anti-cAMP working solution were added to each well, and plate was centrifuged at 1000 rpm for 1 min, agitated at 600 rpm at R.T. for 2 min, and incubated at 25° C. for 15 min. Levels of TR-FRET fluorescence were measured in each well using an EnVision microplate reader (excitation wavelength=337 nm and emission wavelength=615 and 665 nm). A dose-response curve was prepared by plotting percent inhibition for each compound concentration, and then IC50 was calculated by fitting a curve to the plotted values and extrapolating the IC50 concentration.
Potency data is grouped into categories of AA (IC50<100 nM); A (IC50=100 to 500 nM); B (IC50=500 nM to 1 μM); C (IC50=1 μM to 5 μM); and D (IC50>5 μM).

[2] = Human liver microsome stability; type: in vitro ADME; settings: human liver microsomes 0.5 mg/mL, 37° C., 60 minutes; for half-life at 2 μM: read-out: T1/2 (microsomal); for microsomal CLint at 2 μM: read-out: in vitro CLint (microsomal)
Protocol: The tested compound was incubated in duplicate with human liver microsomes (0.5 mg/mL) at 37° C. These incubations were carried out at a final test article concentration of 2 μM over a total incubation period of 60 minutes. Samples were taken at 0, 15, 30, 45 and 60 min and the reaction terminated by addition of 4 volumes of acetonitrile containing internal standard (100 nM alprazolam, 200 nM imipramine, 200 nM labetalol and 2 μM ketoprofen). Diclofenac was used as a positive control in this study. The samples were analyzed by UPLC-MS/MS to determine the concentration of the test compound and the percent remaining, intrinsic clearance (in vitro CLint) and half-life (t1/2) values were calculated.
Chromatographic analyses were performed on a Shimadzu UPLC apparatus (Kyoto, Japan) consisting of a gradient pump (model LC-30AD), an automatic injector (model HTC PAL System) and an on-line degasser (model DGU-20A5R). Detection was a triple quadrupole tandem mass spectrometer equipped with a turbo ion spray interface (API 4000/Triple Quad 4500/Triple Quad 5500/Triple Quad 6500). Data acquisition and integration were carried out with LC-MS software (Analyst 1.6) linked directly to the LC-MS/MS system. Chromatographic separations were achieved on a XSelect Hss T3 2.5μ (2.1×30 mm) Column. The mobile phase was 0.1% formic acid in water (A) and 0.1% formic acid in acetonitrile (B). The flow rate was 1.0 mL/min and column was maintained at 40° C.
Half-life (T1/2) data is measured in minutes, and in Table B2, in both microsomal and hepatic assays, the data is grouped into categories of: • A T1/2=1000+ • B T1/2=500 to 1000 • C T1/2=100 to 500 • D T1/2<100
In vitro clearance (CLint) data is measured in μL/min/mg prot, and in Table B2, in both microsomal and hepatic assays, the data is grouped into categories of: • A CLint<1 • B CLint=1 to 10 • C CLint=10 to 20 • D CLint=20+

IC50 [1] [nM]	half-life at 2 μM [2] [min]	microsomal CLint at 2 μM [2] [µL/min/mg]	SMILES
1000 to 5000	–	–	COc1ccc(C(=O)N2CCC(COc3ccc(-c4ccc(C#N)cc4)cc3)(C(=O)NO)C2)cc1 (stereo not drawn) [Compound 4-13, 3-(((4′-cyano-[1,1′-biphenyl]-4-yl)oxy)methyl)-N-hydroxy-1-(4-methoxybenzoyl)pyrrolidine-3-carboxamide]
1000 to 5000	–	–	COc1ccc(C(=O)N2CCC(COc3ccc(-c4ccc(C#N)cc4)cc3)(C(=O)N(C)O)C2)cc1 (stereo not drawn) [Compound 4-22, 3-(((4′-cyano-[1,1′-biphenyl]-4-yl)oxy)methyl)-N-hydroxy-1-(4-methoxybenzoyl)-N-methylpyrrolidine-3-carboxamide]
> 5000	–	–	COc1ccc(C(=O)N2CCC(COc3ccc(-c4ccc(C#N)cc4)cc3)(C(=O)NCC(F)(F)F)C2)cc1 (stereo not drawn) [Compound 4-20, 3-(((4′-cyano-[1,1′-biphenyl]-4-yl)oxy)methyl)-1-(4-methoxybenzoyl)-N-(2,2,2-trifluoroethyl)pyrrolidine-3-carboxamide]
–	< 100	> 20	COc1ccc(C(=O)N2CCC(C#N)(COc3ccc(-c4ccc(C#N)cc4)cc3)C2)cc1 (racemic) [Compound 2-3, 3-(((4′-cyano-[1,1′-biphenyl]-4-yl)oxy)methyl)-1-(4-methoxybenzoyl)pyrrolidine-3-carbonitrile]
1000 to 5000	–	–	COc1ccc(C(=O)N2CCC(COc3ccc(-c4ccc(C#N)cc4)cc3)(C(=O)NC#N)C2)cc1 (stereo not drawn) [Compound 4-21, N-cyano-3-(((4′-cyano-[1,1′-biphenyl]-4-yl)oxy)methyl)-1-(4-methoxybenzoyl)pyrrolidine-3-carboxamide]
> 5000	–	–	CONC(=O)C1(COc2ccc(-c3ccc(C#N)cc3)cc2)CCN(C(=O)c2ccc(OC)cc2)C1 (stereo not drawn) [Compound 4-23, 3-(((4′-cyano-[1,1′-biphenyl]-4-yl)oxy)methyl)-N-methoxy-1-(4-methoxybenzoyl)pyrrolidine-3-carboxamide]
> 5000	–	–	COc1ccc(C(=O)N2CCC(COc3ccc(-c4ccc(C#N)cc4)cc3)(C(=O)NS(=O)(=O)C(C)(C)C)C2)cc1 (stereo not drawn) [Compound 4-29, 3-[({4′-cyano-[1,1′-biphenyl]-4-yl}oxy)methyl]-1-(4-methoxybenzoyl)-N-(2-methylpropane-2-sulfonyl)pyrrolidine-3-carboxamide]
–	100 to 500	1 to 10	COc1ccc2cc(OCC3(n4nn[nH]c4=O)CN(C(=O)c4ccc(F)cc4)C3)ccc2c1 [Compound 1-2, 1-(1-(4-fluorobenzoyl)-3-(((6-methoxynaphthalen-2-yl)oxy)methyl)azetidin-3-yl)-1,4-dihydro-5H-tetrazol-5-one]
> 5000	–	–	COc1ccc(C(N2CCC(COc3ccc(-c4ccc(C#N)cc4)cc3)(C(=O)O)C2)C(F)(F)F)cc1 (stereo not drawn) [Compound 4-1, 3-[({4′-cyano-[1,1′-biphenyl]-4-yl}oxy)methyl]-1-[2,2,2-trifluoro-1-(4-methoxyphenyl)ethyl]pyrrolidine-3-carboxylic acid; trifluoroacetic acid]
100 to 500	–	–	COCS(=O)(=O)NC(=O)C1(COc2ccc(-c3ccc(C#N)cc3)cc2)CCN(C(=O)c2ccc(OC)cc2)C1 (stereo not drawn) [Compound 4-27, 3-[({4′-cyano-[1,1′-biphenyl]-4-yl}oxy)methyl]-1-(4-methoxybenzoyl)-N-methoxymethanesulfonylpyrrolidine-3-carboxamide]
> 5000	–	–	COc1ccc(C(=O)N2CCC(COc3ccc(-c4ccc(C#N)cc4)cc3)(C(=O)NS(=O)(=O)c3ccccc3)C2)cc1 (stereo not drawn) [Compound 4-31, N-(benzenesulfonyl)-3-[({4′-cyano-[1,1′-biphenyl]-4-yl}oxy)methyl]-1-(4-methoxybenzoyl)pyrrolidine-3-carboxamide]
> 5000	–	–	N#Cc1ccc(-c2ccc(OCC3(C(=O)O)CCN(C(c4ccc(Br)cc4)C(F)(F)F)C3)cc2)cc1 (stereo not drawn) [Compound 4-34, 1-[1-(4-bromophenyl)-2,2,2-trifluoroethyl]-3-[({4′-cyano-[1,1′-biphenyl]-4-yl}oxy)methyl]pyrrolidine-3-carboxylic acid]
1000 to 5000	–	–	COc1ccc(C(=O)N2CCC(COc3ccc(-c4ccc(C#N)cc4)cc3)(C(=O)NS(=O)(=O)CC(F)(F)F)C2)cc1 (stereo not drawn) [Compound 4-26, 3-[({4′-cyano-[1,1′-biphenyl]-4-yl}oxy)methyl]-1-(4-methoxybenzoyl)-N-(2,2,2-trifluoroethanesulfonyl)pyrrolidine-3-carboxamide]
> 5000	–	–	COc1ccc(C(=O)N2CCC(COc3ccc(-c4ccc(C#N)cc4)cc3)(c3cc[nH]c(=O)c3)C2)cc1 (stereo not drawn) [Compound 4-16, 4′-{[1-(4-methoxybenzoyl)-3-(2-oxo-1H-pyridin-4-yl)pyrrolidin-3-yl]methoxy}-[1,1′-biphenyl]-4-carbonitrile]
500 to 1000	–	–	COc1ccc(C(=O)N2CCC(COc3ccc(-c4ccc(C#N)cc4)cc3)(C(=O)NS(=O)(=O)C(C)C)C2)cc1 (stereo not drawn) [Compound 4-28, 3-[({4′-cyano-[1,1′-biphenyl]-4-yl}oxy)methyl]-1-(4-methoxybenzoyl)-N-(propane-2-sulfonyl)pyrrolidine-3-carboxamide]
–	< 100	> 20	COc1ccc2cc(OCC3(C#N)CN(C(=O)c4ccc(F)cc4)C3)ccc2c1 [Compound 1-3, 1-(4-fluorobenzoyl)-3-(((6-methoxynaphthalen-2-yl)oxy)methyl)azetidine-3-carbonitrile]
500 to 1000	500 to 1000	1 to 10	COc1ccc(C(=O)N2CCC(COc3ccc(-c4ccc(C#N)cc4)cc3)(n3nn[nH]c3=O)C2)cc1 (racemic) [Compound 2-2, 4′-((1-(4-methoxybenzoyl)-3-(5-oxo-4,5-dihydro-1H-tetrazol-1-yl)pyrrolidin-3-yl)methoxy)-[1,1′-biphenyl]-4-carbonitrile]
1000 to 5000	–	–	COc1ccc(C(=O)N2CCC(COc3ccc(-c4ccc(C#N)cc4)cc3)(C(=O)NS(=O)(=O)C3CC3)C2)cc1 (stereo not drawn) [Compound 4-30, 3-[({4′-cyano-[1,1′-biphenyl]-4-yl}oxy)methyl]-N-(cyclopropanesulfonyl)-1-(4-methoxybenzoyl)pyrrolidine-3-carboxamide]
500 to 1000	–	–	CCS(=O)(=O)NC(=O)C1(COc2ccc(-c3ccc(C#N)cc3)cc2)CCN(C(=O)c2ccc(OC)cc2)C1 (stereo not drawn) [Compound 4-25, 3-[({4′-cyano-[1,1′-biphenyl]-4-yl}oxy)methyl]-N-(ethanesulfonyl)-1-(4-methoxybenzoyl)pyrrolidine-3-carboxamide]
